Experimental data from patent publication US11993609B2, “Compositions and methods for oral delivery of crystalline PRX-3140 potassium salt” (Nanopharmaceutics, Inc., priority 2022, dated 2024).
“Also recorded” adds a separate entry of the source. Where two headings read alike, the source gives them in different places. Blank lines part the entries; values can stand above or below the molecule they belong to.

Legend:
[1] = forced degradation study (acid, base, 3% hydrogen peroxide), LC-UV-MS; format: physicochemical
Procedure: Crystalline fine particle Form I of PRX-3140 potassium salt was subjected to a forced degradation study using acid, base, or hydrogen peroxide exposure for 24 hours. Samples were neutralized and analyzed using LC-UV-MS. [table] Sample Preparation: […] One mL of stock was added to four, 4 mL vials. […] After storage, the samples of acid and base were neutralized by addition of 1 mL their counter solution. […] Samples were analyzed using LC-UV-MS. Table 5 lists a comparison for the control, acid, base, and peroxide samples showing percent peak area versus relative retention time (RRT) at 250 nm. While some minor changes can be noted between the control with the acid and base samples, the overall purity (peak area) of the parent molecule is just slightly higher for the acid and base sample. Some of the minor impurities appear to be reacting with the acid or base, potentially reforming to the parent.

[2] = tested on: distal gastrointestinal motility; conditions: gastrointestinally active 5-HT4 agonists, comparison; cited from earlier work
[3] = photostability study (ICH Q1B), HPLC; format: physicochemical
Procedure: Two samples of crystalline fine particle Form I of PRX-3140 potassium salt were prepared for photostability testing: (1) 1.5 grams spread evenly across a glass Petri dish and covered with a transparent quartz cover and (2) 1.5 grams spread evenly across a glass Petri dish and covered with aluminum foil. […] Samples were exposed for 2 days and tested using HPLC […] […] Changes were evident for crystalline fine particle Form I of PRX-3140 potassium salt after exposure to UVA and white light. The sample changed color particularly on the upper exposed surface of the material and there were changes apparent in the HPLC data. […] The single impurity profile met the specification (<0.2%) but significant changes were observed. […] Other changes included a change in appearance of the material to a sticky solid and an increase in water content to 4.3% w/w.

[4] = 30% peroxide degradation study, LC/UV/MS; format: physicochemical; conditions: 18-hour exposure to 30% hydrogen peroxide, HPLC 250 nm
Sigma-2 receptor = Sigma-2 receptor (Homo sapiens, UniProt Q5BJF2); test: Sigma-2 radioligand binding assays
Sequence of Sigma-2 receptor (Q5BJF2 whole entry): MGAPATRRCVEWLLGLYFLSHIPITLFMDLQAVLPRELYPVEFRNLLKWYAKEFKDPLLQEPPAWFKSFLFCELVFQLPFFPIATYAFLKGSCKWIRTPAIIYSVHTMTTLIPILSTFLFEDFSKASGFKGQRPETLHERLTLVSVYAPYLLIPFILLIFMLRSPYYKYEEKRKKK
Description: (§1) The specific ligand binding to the receptors is defined as the difference between the total binding and the nonspecific binding determined in the presence of an excess of unlabelled ligand.

[5] = early-stage clinical studies (safety, tolerability, pharmacokinetics); format: in vivo
Description: (§2) PRX-3140 is being developed for Alzheimer's disease (AD) and other dementias affecting the cholinergic and/or serotonergic systems including post-traumatic stress disorder (PTSD). Extensive non-clinical studies have been completed including in vitro and in vivo pharmacology, safety pharmacology, genotoxicity as well as single and repeat dose toxicology studies in two species, rat and beagle dog.

[6] = tested on: all other 5-HT receptors tested; test: radioligand binding, other 5-HT receptors (selectivity); conditions: vs 5-HT4R affinity
Description: as §1

[7] = tested on: distal gastrointestinal motility; test: distal gastrointestinal motility; conditions: in vivo
Description: as §2

[8] = brain/serum partition after oral administration in preclinical studies; conditions: in vivo
Description: as §2

[9] = tested on: more than 50 other receptors tested including GPCRs, ion channels and receptor tyrosine kinases; test: binding panel of other receptors
Description: as §1

Sigma-1 receptor = Sigma-1 receptor (Homo sapiens, UniProt Q99720); test: Sigma-1 radioligand binding assays
Sequence of Sigma-1 receptor (Q99720 whole entry): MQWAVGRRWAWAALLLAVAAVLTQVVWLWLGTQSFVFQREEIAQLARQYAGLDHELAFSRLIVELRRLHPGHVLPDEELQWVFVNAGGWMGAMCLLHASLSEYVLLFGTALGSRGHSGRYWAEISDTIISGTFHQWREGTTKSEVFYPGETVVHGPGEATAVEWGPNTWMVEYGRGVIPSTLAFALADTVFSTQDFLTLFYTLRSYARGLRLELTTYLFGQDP
Description: as §1

[10] = Acid (1N HCl, 24 hours), 250 nm
[11] = Base (1N NaOH, 24 hours), 250 nm
[12] = Control (DI water, 24 hours), 250 nm
[13] = Control (covered with aluminum foil), potassium salt
[14] = Exposed Sample (ICH Q1B light, 2 days), potassium salt

percent peak area, RRT 1.05 (PRX-3140b) [1, 10]: < 0.03% | percent peak area, RRT 1.05 (PRX-3140b) [1, 11]: < 0.03% | percent peak area, RRT 1.05 (PRX-3140b) [1, 12]: < 0.03% | percent peak area, RRT 1.05 (PRX-3140b) ([1]; H2O2 (3%, 24 hours), 250 nm): 9.1%
Molecule: [7-(methylethyl)1,4,6-trioxo(5,7-dihydrothiopheno[2,3-b]pyridine-5-yl)]-N-(3-piperidylpropyl)carboxamide [PRX-3140b]

Molecule: COc1cc(N)c(Cl)cc1C(=O)NC1CCN(CCCOc2ccc(F)cc2)CC1OC (centres unmarked) [cisapride]
distal gastrointestinal motility [2]: significant distal gastrointestinal motility observed

Molecule: CC(C)n1c(=O)c(C(=O)NCCCN2CCCCC2)c([O-])c2ccsc21.[K+] [PRX-3140 potassium salt, 6,7-Dihydro-4-hydroxy-7-isopropyl-6-oxo-N-(3-(piperidin-1-yl)propyl)thieno[2,3-b]pyridine-5-carboxamide potassium salt]
Unknown (RRT 0.55) ([3]; Control): 0.01% | Unknown (RRT 0.74) ([3]; Control): 0.01% | Unknown (RRT 0.75) ([3]; Control): 0.01% | Unknown (RRT 0.87) ([3]; Control): 0.09% | Unknown (RRT 0.95) ([3]; Control): 0.04% | Unknown (RRT 0.98) ([3]; Control): 0.01% | Unknown (RRT 1.07) ([3]; Control): 0.01% | Unknown (RRT 1.12) ([3]; Control): 0.01% | Unknown (RRT 1.22) ([3]; Control): 0.01% | Appearance ([3]; Control (covered with aluminum foil)): Pinkish solid | Total impurities [3, 13]: 0.20% | Water Content - KF [3, 13]: 3.1 % w/w | Unknown (RRT 0.55) ([3]; Exposed Sample): 0.01% | Unknown (RRT 0.74) ([3]; Exposed Sample): 0.02% | Unknown (RRT 0.75) ([3]; Exposed Sample): 0.01% | Unknown (RRT 0.86) ([3]; Exposed Sample): 0.01% | Unknown (RRT 0.87) ([3]; Exposed Sample): 0.10% | Unknown (RRT 0.90) ([3]; Exposed Sample): 0.01% | Unknown (RRT 0.91) ([3]; Exposed Sample): 0.01% | Unknown (RRT 0.95) ([3]; Exposed Sample): 0.05% | Unknown (RRT 0.98) ([3]; Exposed Sample): 0.04% | Unknown (RRT 1.07) ([3]; Exposed Sample): 0.06% | Unknown (RRT 1.12) ([3]; Exposed Sample): 0.02% | Unknown (RRT 1.22) ([3]; Exposed Sample): 0.01% | Unknown (RRT 1.50) ([3]; Exposed Sample): 0.02% | Unknown (RRT 1.54) ([3]; Exposed Sample): 0.01% | Unknown (RRT 1.57) ([3]; Exposed Sample): 0.01% | Unknown (RRT 1.63) ([3]; Exposed Sample): 0.05% | Unknown (RRT 1.75) ([3]; Exposed Sample): 0.04% | Unknown (RRT 1.76) ([3]; Exposed Sample): 0.03% | Unknown (RRT 1.79) ([3]; Exposed Sample): 0.01% | Unknown (RRT 2.06) ([3]; Exposed Sample): 0.01% | Unknown (RRT 2.08) ([3]; Exposed Sample): 0.01% | Unknown (RRT 2.16) ([3]; Exposed Sample): 0.01% | Appearance [3, 14]: sticky solid; also recorded: Orange | Total impurities [3, 14]: 0.77% | Water Content - KF [3, 14]: 4.3 % w/w | Unknown (RRT 1.72) ([3]; Exposed Sample, first RRT 1.72 line (r24)): 0.04% | Unknown (RRT 1.83) ([3]; Exposed Sample, potassium salt): 0.16% | Unknown (RRT 1.72) ([3]; Exposed Sample, second RRT 1.72 line (r25)): 0.02% | assay value ([3]; illuminated photostability sample): 94.2 % w/w | Appearance ([3]; t = 0): Light brown solid | Total impurities ([3]; t = 0): 0.22% | Unknown (RRT 0.55) ([3]; t = 0): 0.01% | Unknown (RRT 0.74) ([3]; t = 0): 0.01% | Unknown (RRT 0.75) ([3]; t = 0): 0.01% | Unknown (RRT 0.87) ([3]; t = 0): 0.09% | Unknown (RRT 0.95) ([3]; t = 0): 0.05% | Unknown (RRT 0.98) ([3]; t = 0): 0.01% | Unknown (RRT 1.12) ([3]; t = 0): 0.01% | Unknown (RRT 1.22) ([3]; t = 0): 0.01% | Unknown (RRT 2.01) ([3]; t = 0): 0.01% | Unknown (RRT 2.16) ([3]; t = 0): 0.01% | Unknown (RRT 2.38) ([3]; t = 0): 0.01% | Water Content - KF ([3]; t = 0, potassium salt): 0.9 % w/w | purity of the parent molecule [4]: 29.6% | Ki (Sigma-2 receptor): 99 to 160 nM | oral bioavailability [5]: high oral bioavailability | effect of acid on the compound ([1]; 1 N HCl for 24 hours): very little effect | effect of base on the compound ([1]; 1 N NaOH for 24 hours): very little effect | percent peak area, RRT 0.99 [1, 10]: 0.07% | percent peak area, RRT 1.05 (PRX-3140b) [1, 10]: <0.03% | percent peak area, RRT 1.08 [1, 10]: 0.11% | percent peak area, RRT 1.11 [1, 10]: 0.04% | percent peak area, RRT 1.27 [1, 10]: 0.04% | percent peak area, RRT 1.34 [1, 10]: 0.15% | percent peak area, RRT 1.53 [1, 10]: 0.43% | percent peak area, RRT 1.79 [1, 10]: 0.04% | percent peak area, RRT 2.51 [1, 10]: 0.06% | percent peak area, RRT 2.70 [1, 10]: 0.13% | percent peak area, RRT 1.00 (parent molecule, purity) ([1]; Acid (1N HCl, 24 hours), 250 nm, listed as PRX-3140 Potassium Salt, potassium salt): 98.94% | percent peak area, RRT 1.00 (parent molecule, purity) ([1]; Acid (1N HCl, 24 hours), 250 nm, potassium salt): 98.9% | percent peak area, RRT 0.94 [1, 11]: 0.28% | percent peak area, RRT 1.05 (PRX-3140b) [1, 11]: <0.03% | percent peak area, RRT 1.08 [1, 11]: 0.12% | percent peak area, RRT 1.34 [1, 11]: 0.16% | percent peak area, RRT 1.53 [1, 11]: 0.42% | percent peak area, RRT 1.79 [1, 11]: 0.05% | percent peak area, RRT 2.51 [1, 11]: 0.05% | percent peak area, RRT 2.70 [1, 11]: 0.12% | percent peak area, RRT 1.00 (parent molecule, purity) ([1]; Base (1N NaOH, 24 hours), 250 nm, listed as PRX-3140 Potassium Salt, potassium salt): 98.71% | percent peak area, RRT 1.00 (parent molecule, purity) ([1]; Base (1N NaOH, 24 hours), 250 nm, potassium salt): 98.7% | percent peak area, RRT 1.05 (PRX-3140b) [1, 12]: <0.03% | percent peak area, RRT 1.08 [1, 12]: 0.12% | percent peak area, RRT 1.11 [1, 12]: 0.04% | percent peak area, RRT 1.34 [1, 12]: 0.17% | percent peak area, RRT 1.53 [1, 12]: 0.42% | percent peak area, RRT 1.71 [1, 12]: 0.23% | percent peak area, RRT 1.79 [1, 12]: 0.11% | percent peak area, RRT 1.93 [1, 12]: 0.06% | percent peak area, RRT 2.51 [1, 12]: 0.06% | percent peak area, RRT 2.70 [1, 12]: 0.18% | percent peak area, RRT 1.00 (parent molecule, purity) ([1]; Control (DI water, 24 hours), 250 nm, listed as PRX-3140, potassium salt): 98.6% | percent peak area, RRT 1.00 (parent molecule, purity) ([1]; Control (DI water, 24 hours), 250 nm, listed as PRX-3140 Potassium Salt, potassium salt): 98.60% | percent peak area, RRT 1.00 (parent molecule, purity) ([1]; Control (DI water, 24 hours), 250 nm, potassium salt): 98.6% | percent peak area, RRT 0.78 (PRX-3140a) ([1]; H2O2 (3%, 24 hours), 250 nm): 8.49% | percent peak area, RRT 0.82 ([1]; H2O2 (3%, 24 hours), 250 nm): 0.10% | percent peak area, RRT 1.05 (PRX-3140b) ([1]; H2O2 (3%, 24 hours), 250 nm): 9.06% | percent peak area, RRT 1.08 ([1]; H2O2 (3%, 24 hours), 250 nm): 0.19% | percent peak area, RRT 1.27 ([1]; H2O2 (3%, 24 hours), 250 nm): 0.21% | percent peak area, RRT 1.34 ([1]; H2O2 (3%, 24 hours), 250 nm): 0.09% | percent peak area, RRT 1.42 ([1]; H2O2 (3%, 24 hours), 250 nm): 0.32% | percent peak area, RRT 1.53 ([1]; H2O2 (3%, 24 hours), 250 nm): 0.42% | percent peak area, RRT 1.79 ([1]; H2O2 (3%, 24 hours), 250 nm): 0.19% | percent peak area, RRT 2.70 ([1]; H2O2 (3%, 24 hours), 250 nm): 0.11% | percent peak area, RRT 1.00 (parent molecule, purity) ([1]; H2O2 (3%, 24 hours), 250 nm, listed as PRX-3140, potassium salt): 80.6% | percent peak area, RRT 1.00 (parent molecule, purity) ([1]; H2O2 (3%, 24 hours), 250 nm, listed as PRX-3140 Potassium Salt, potassium salt): 80.57% | percent peak area, RRT 1.00 (parent molecule, purity) ([1]; H2O2 (3%, 24 hours), 250 nm, potassium salt): 80.6% | difference in affinities compared with all other 5-HT receptors tested [6]: more than 100 fold | distal gastrointestinal motility [7]: without inducing significant distal gastrointestinal motility | CNS penetration [8]: high CNS penetration | affinity for other receptors [9]: no significant affinity | Ki (Sigma-1 receptor): 79 to 100 nM

Molecule: CCCCCNC(=N)N/N=C/c1c[nH]c2ccc(OC)cc12 [tegaserod]
distal gastrointestinal motility [2]: significant distal gastrointestinal motility observed
